Laboratory results published in PubChem BioAssay AID588412 (NMMLSC, 2011).
pEC50: −log10 of the molar value. Active and inactive are the calls of the source.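 How the source made its calls: active means fitted EC50 below about 63 µM, meaning a log molar EC50 under -4.2; inactive means the rest.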

Target: Integrin alpha-4 (Homo sapiens) (UniProt P13612)
Experiment: VLA-4 ligand competition with LDV-FITC, dose response, orthogonal assay, U937 cells, flow cytometry, set 1 (AID 588412)
Conditions: flow cytometry MCF

Sequence of Integrin alpha-4 (Homo sapiens) (P13612 whole entry, looked up): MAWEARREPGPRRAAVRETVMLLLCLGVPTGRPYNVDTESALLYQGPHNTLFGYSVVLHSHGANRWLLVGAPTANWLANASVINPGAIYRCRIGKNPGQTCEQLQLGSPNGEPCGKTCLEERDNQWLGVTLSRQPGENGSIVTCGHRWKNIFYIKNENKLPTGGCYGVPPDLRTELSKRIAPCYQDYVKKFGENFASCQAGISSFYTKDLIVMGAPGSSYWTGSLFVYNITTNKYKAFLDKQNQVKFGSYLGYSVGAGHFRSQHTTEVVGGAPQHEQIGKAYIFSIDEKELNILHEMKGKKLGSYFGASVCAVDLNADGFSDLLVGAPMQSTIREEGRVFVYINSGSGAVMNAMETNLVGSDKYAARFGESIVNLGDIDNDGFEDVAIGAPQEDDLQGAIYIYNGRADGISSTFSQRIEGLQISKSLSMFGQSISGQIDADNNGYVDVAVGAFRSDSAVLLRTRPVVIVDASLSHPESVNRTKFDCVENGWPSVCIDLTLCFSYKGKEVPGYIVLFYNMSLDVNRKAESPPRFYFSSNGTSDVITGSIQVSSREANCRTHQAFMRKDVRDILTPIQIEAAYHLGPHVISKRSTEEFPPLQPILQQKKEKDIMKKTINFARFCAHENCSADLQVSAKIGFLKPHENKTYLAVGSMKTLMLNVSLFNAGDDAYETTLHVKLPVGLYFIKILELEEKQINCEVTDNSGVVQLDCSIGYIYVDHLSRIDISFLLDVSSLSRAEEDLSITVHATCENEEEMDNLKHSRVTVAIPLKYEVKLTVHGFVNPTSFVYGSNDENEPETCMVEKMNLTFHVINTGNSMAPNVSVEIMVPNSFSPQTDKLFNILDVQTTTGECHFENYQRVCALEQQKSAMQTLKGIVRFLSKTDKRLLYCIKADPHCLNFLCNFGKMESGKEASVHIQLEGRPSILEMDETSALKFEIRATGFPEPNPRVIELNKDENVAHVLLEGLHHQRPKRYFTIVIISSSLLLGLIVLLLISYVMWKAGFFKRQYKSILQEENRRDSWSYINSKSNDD

Row | Compound | pEC50 | EC50
1 | COc1cccc(-c2sc3ccccc3c2-c2ccc(OCCN3CCCC3)cc2)c1 | 4.61 | 
2 | CN(C)CCOc1ccc(-c2c(-c3ccccc3)sc3ccccc23)cc1 | 4.52 | 
3 | c1ccc2c(-c3ccc(OCCN4CCCCC4)cc3)c(-c3ccsc3)sc2c1 |  | inactive
4 | c1ccc(-c2sc3ccccc3c2-c2ccc(OCCN3CCCC3)cc2)cc1 | 4.55 | 

More lines, now with the values ahead:

Row | pEC50 | EC50 | Compound
5 | 4.68 |  | c1ccc2c(-c3ccc(OCCN4CCCC4)cc3)c(-c3ccsc3)sc2c1
6 | 4.61 |  | COc1cccc(-c2sc3ccccc3c2-c2ccc(OCCN(C)C)cc2)c1
7 | 4.79 |  | COc1ccc(-c2sc3ccccc3c2-c2ccc(OCCN(C)C)cc2)cc1
